Test results taken from patent publication US12091411B2, “IRAK degraders and uses thereof” (Kymera Therapeutics, Inc., priority 2022, dated 2024).
Where two headings read alike, the source gives them in different places.

Target: T1, IRAK4 (Homo sapiens, UniProt Q9NWZ3)
T1 construct: Degradation of IRAK4 in OCI-LY10 was quantitatively measured using Meso Scale Discovery technology; endogenous in cells; host or cells: OCI-LY10
T1 sequence (Q9NWZ3 1-460): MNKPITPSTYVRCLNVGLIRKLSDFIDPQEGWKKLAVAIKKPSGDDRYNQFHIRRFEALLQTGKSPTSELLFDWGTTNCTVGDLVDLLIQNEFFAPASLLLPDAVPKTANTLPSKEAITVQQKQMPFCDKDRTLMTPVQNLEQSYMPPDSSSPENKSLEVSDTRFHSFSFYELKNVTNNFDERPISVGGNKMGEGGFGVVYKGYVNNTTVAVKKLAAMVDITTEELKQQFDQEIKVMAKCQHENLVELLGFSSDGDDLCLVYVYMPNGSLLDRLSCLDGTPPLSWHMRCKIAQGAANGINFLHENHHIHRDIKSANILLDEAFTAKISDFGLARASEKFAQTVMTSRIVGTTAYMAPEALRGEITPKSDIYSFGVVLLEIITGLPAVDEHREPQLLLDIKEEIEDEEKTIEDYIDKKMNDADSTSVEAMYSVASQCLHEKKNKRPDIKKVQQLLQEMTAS
Test: IRAK4 MSD Degradation in OCI-LY10
Format: cell-based
Conditions: OCI-LY10 cells, MSD
Method in brief: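 DC50, from a three-parameter logistic fit and reported as letter bins A (<0.01 μM), B, C, D (>0.2 μM or not tested), reflects IRAK4 loss measured by MSD electrochemiluminescence in OCI-LY10 lysates. Treatment: 8 doses, 1:3 steps, top 1 to 10 μM, 4 to 24 h, 37 °C.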

[1] = 4 hrs incubation, read-out: IRAK4 degradation in OCI-LY10 at 4 hrs: DC50
[2] = 24 hrs incubation, read-out: IRAK4 degradation in OCI-LY10 at 24 hrs: DC50

Structure (SMILES) | DC50 [1] | DC50 [2]
Cn1c(=O)n(C2CCC(=O)NC2=O)c2cccc(C[C@@H]3CN(C[C@H]4CC[C@H](n5cc(NC(=O)c6cnn7ccc(N8C[C@H]9C[C@@H]8CO9)nc67)c(C(F)F)n5)CC4)CCO3)c21 (some centres unmarked) [I-393] | > 0.2 µM | > 0.2 µM
Cn1c(=O)n(C2CCC(=O)NC2=O)c2cccc(C[C@@H]3CN(Cc4ccc(-n5cc(NC(=O)c6cnn7ccc(N8C[C@H]9C[C@@H]8CO9)nc67)c(C(F)F)n5)cc4)CCO3)c21 (some centres unmarked) [I-394] | > 0.2 µM | > 0.2 µM
Cn1c(=O)n(C2CCC(=O)NC2=O)c2cccc(CC[C@@H]3CN(C[C@H]4CC[C@H](n5cc(NC(=O)c6cnn7ccc(N8C[C@H]9C[C@@H]8CO9)nc67)c(C(F)F)n5)CC4)CCO3)c21 (some centres unmarked) [I-395] | > 0.2 µM | > 0.2 µM
Cn1c(=O)n(C2CCC(=O)NC2=O)c2cccc(CC[C@@H]3CN(Cc4ccc(-n5cc(NC(=O)c6cnn7ccc(N8C[C@H]9C[C@@H]8CO9)nc67)c(C(F)F)n5)cc4)CCO3)c21 (some centres unmarked) [I-396] | > 0.2 µM | > 0.2 µM
Cn1c(=O)n(C2CCC(=O)NC2=O)c2cccc(CC[C@@H]3CN(C[C@H]4CC[C@H](n5cc(NC(=O)c6cnn7cccnc67)c(C(F)F)n5)CC4)CCO3)c21 (some centres unmarked) [I-397] | > 0.2 µM | > 0.2 µM
Cn1c(=O)n(C2CCC(=O)NC2=O)c2cccc(CC[C@@H]3CN(Cc4ccc(-n5cc(NC(=O)c6cnn7cccnc67)c(C(F)F)n5)cc4)CCO3)c21 (some centres unmarked) [I-398] | > 0.2 µM | > 0.2 µM
Cn1c(=O)n(C2CCC(=O)NC2=O)c2cccc(N3CCC4(CC3)CN(Cc3ccc(-n5cc(NC(=O)c6cnn7cccnc67)c(C(F)F)n5)cc3)C4)c21 (centres unmarked) [I-399] | < 0.01 µM | > 0.2 µM
Cn1c(=O)n(C2CCC(=O)NC2=O)c2cccc(N3CC4(CCN(Cc5ccc(-n6cc(NC(=O)c7cnn8ccc(N9C[C@H]%10C[C@@H]9CO%10)nc78)c(C(F)F)n6)cc5)CC4)C3)c21 (some centres unmarked) [I-400] | 0.01 to 0.1 µM | > 0.2 µM
Cn1c(=O)n(C2CCC(=O)NC2=O)c2cccc(OC3CC4(CCN(Cc5ccc(-n6cc(NC(=O)c7cnn8ccc(N9C[C@H]%10C[C@@H]9CO%10)nc78)c(C(F)F)n6)cc5)CC4)C3)c21 (some centres unmarked) [I-401] | > 0.2 µM | > 0.2 µM
Cn1c(=O)n(C2CCC(=O)NC2=O)c2cccc(CN3CC4(CCN(Cc5ccc(-n6cc(NC(=O)c7cnn8ccc(N9C[C@H]%10C[C@@H]9CO%10)nc78)c(C(F)F)n6)cc5)CC4)C3)c21 (some centres unmarked) [I-402] | > 0.2 µM | > 0.2 µM
Cn1c(=O)n(C2CCC(=O)NC2=O)c2cccc(N3CCN(C[C@H]4CC[C@H](n5cc(NC(=O)c6cnn7cccnc67)c(C(F)F)n5)CC4)CC3)c21 (some centres unmarked) [I-403] | > 0.2 µM | > 0.2 µM
Cn1c(=O)n(C2CCC(=O)NC2=O)c2cccc(N3CCC4C(C3)OCCN4C[C@H]3CC[C@H](n4cc(NC(=O)c5cnn6cccnc56)c(C(F)F)n4)CC3)c21 (some centres unmarked) [I-404] | > 0.2 µM | > 0.2 µM
C[C@H]1CN(c2ccn3ncc(C(=O)Nc4cn([C@H]5CC[C@H](CN6CCN(CC#Cc7cccc8c7n(C)c(=O)n8C7CCC(=O)NC7=O)CC6)CC5)nc4C(F)F)c3n2)CCO1 (some centres unmarked) [I-405] | > 0.2 µM | > 0.2 µM
C[C@@H]1CN(c2ccn3ncc(C(=O)Nc4cn([C@H]5CC[C@H](CN6CCN(CC#Cc7cccc8c7n(C)c(=O)n8C7CCC(=O)NC7=O)CC6)CC5)nc4C(F)F)c3n2)CCO1 (some centres unmarked) [I-406] | > 0.2 µM | < 0.01 µM
Cn1c(=O)n(C2CCC(=O)NC2=O)c2cccc(C#CCN3CCN(C[C@H]4CC[C@H](n5cc(NC(=O)c6cnn7ccc(N8CCOC(C(F)F)C8)nc67)c(C(F)F)n5)CC4)CC3)c21 (some centres unmarked) [I-407] | > 0.2 µM | > 0.2 µM
Cn1c(=O)n(C2CCC(=O)NC2=O)c2cccc(C#CCN3CCN(C[C@H]4CC[C@H](n5cc(NC(=O)c6cnn7ccc(N8CCN(C(F)(F)F)CC8)nc67)c(C(F)F)n5)CC4)CC3)c21 (some centres unmarked) [I-408] | > 0.2 µM | > 0.2 µM

Structure (SMILES) | DC50 [1] | DC50 [2]
Cn1c(=O)n(C2CCC(=O)NC2=O)c2cccc(C#CCN3CCN(C[C@H]4CC[C@H](n5cc(NC(=O)c6cnn7ccc(N8CCN(CC(F)F)CC8)nc67)c(C(F)F)n5)CC4)CC3)c21 (some centres unmarked) [I-409] | > 0.2 µM | > 0.2 µM
Cn1c(=O)n(C2CCC(=O)NC2=O)c2cccc(C#CCN3CCN(C[C@H]4CC[C@H](n5cc(NC(=O)c6cnn7ccc(N8CCN(CC(F)(F)F)CC8)nc67)c(C(F)F)n5)CC4)CC3)c21 (some centres unmarked) [I-410] | > 0.2 µM | > 0.2 µM
CN1CCN(c2ccn3ncc(C(=O)Nc4cn([C@H]5CC[C@H](CN6CCN(CC#Cc7cccc8c7n(C)c(=O)n8C7CCC(=O)NC7=O)CC6)CC5)nc4C(F)F)c3n2)CC1C(F)F (some centres unmarked) [I-411] | > 0.2 µM | > 0.2 µM
CN1CCN(c2ccn3ncc(C(=O)Nc4cn([C@H]5CC[C@H](CN6CCN(CC#Cc7cccc8c7n(C)c(=O)n8C7CCC(=O)NC7=O)CC6)CC5)nc4C(F)F)c3n2)CC1C(F)(F)F (some centres unmarked) [I-412] | > 0.2 µM | > 0.2 µM
CN1CCC(c2ccn3ncc(C(=O)Nc4cn([C@H]5CC[C@H](CN6CCN(CC#Cc7cccc8c7n(C)c(=O)n8C7CCC(=O)NC7=O)CC6)CC5)nc4C(F)F)c3n2)C(F)(F)C1 (some centres unmarked) [I-413] | > 0.2 µM | > 0.2 µM
Cn1c(=O)n(C2CCC(=O)NC2=O)c2cccc(C#CCN3CCN(C[C@H]4CC[C@H](n5cc(NC(=O)c6cnn7ccc(N8CC(F)(F)C8)nc67)c(C(F)F)n5)CC4)CC3)c21 (some centres unmarked) [I-414] | 0.1 to 0.2 µM | > 0.2 µM
Cn1c(=O)n(C2CCC(=O)NC2=O)c2cccc(-c3cc(CN4CCn5cc(-n6cc(NC(=O)c7cnn8cccnc78)c(C(F)F)n6)cc5C4)ncn3)c21 (centres unmarked) [I-415] | > 0.2 µM | > 0.2 µM
Cn1c(=O)n(C2CCC(=O)NC2=O)c2cccc(N3CCC(N4CCn5cc(-n6cc(NC(=O)c7cnn8cccnc78)c(C(F)F)n6)cc5C4)CC3)c21 (centres unmarked) [I-416] | > 0.2 µM | > 0.2 µM
Cn1c(=O)n(C2CCC(=O)NC2=O)c2cccc(-c3ccc(N4CCc5cc(-n6cc(NC(=O)c7cnn8cccnc78)c(C(F)F)n6)ccc5C4)nc3)c21 (centres unmarked) [I-417] | > 0.2 µM | > 0.2 µM
Cn1c(=O)n(C2CCC(=O)NC2=O)c2cccc(C#CCN3CCN(C[C@H]4CC[C@H](n5cc(NC(=O)c6cnn7ccc(N8CC[C@]9(CCOC9)C8)nc67)c(C(F)F)n5)CC4)CC3)c21 (some centres unmarked) [I-418] | 0.01 to 0.1 µM | > 0.2 µM
Cn1c(=O)n(C2CCC(=O)NC2=O)c2cccc(C#CCN3CCN(C[C@H]4CC[C@H](n5cc(NC(=O)c6cnn7ccc(N8CC[C@@]9(CCOC9)C8)nc67)c(C(F)F)n5)CC4)CC3)c21 (some centres unmarked) [I-419] | 0.01 to 0.1 µM | > 0.2 µM
Cn1c(=O)n(C2CCC(=O)NC2=O)c2cccc(C#CCOC3CCN([C@H]4CC[C@@H](n5cc(NC(=O)c6cnn7ccc(N8C[C@H]9C[C@@H]8CO9)nc67)c(C(F)F)n5)CC4)CC3)c21 (some centres unmarked) [I-420] | > 0.2 µM | > 0.2 µM
Cn1c(=O)n(C2CCC(=O)NC2=O)c2cccc(C#CCN3CCN([C@H]4CC[C@@H](n5cc(NC(=O)c6cnn7ccc(N8C[C@H]9C[C@@H]8CO9)nc67)c(C(F)F)n5)CC4)CC3)c21 (some centres unmarked) [I-421] | 0.01 to 0.1 µM | > 0.2 µM
Cn1c(=O)n(C2CCC(=O)NC2=O)c2cccc(N3CCC(N4CCN([C@H]5CC[C@@H](n6cc(NC(=O)c7cnn8ccc(N9C[C@H]%10C[C@@H]9CO%10)nc78)c(C(F)F)n6)CC5)CC4)CC3)c21 (some centres unmarked) [I-422] | > 0.2 µM | > 0.2 µM
Cn1c(=O)n(C2CCC(=O)NC2=O)c2cccc(C3CCN(C4CCN(C5CCC(n6cc(NC(=O)c7cnn8ccc(N9C[C@H]%10C[C@@H]9CO%10)nc78)c(C(F)F)n6)CC5)CC4)CC3)c21 (some centres unmarked) [I-423] | > 0.2 µM | > 0.2 µM
